The values below come from ChEMBL document CHEMBL5727898, “Compounds and their use for reducing uric acid levels” (2020).

One may read the IC50 as the concentration that gives 50% inhibition. Lower therefore signals inhibition by little substance.

In this experiment the target is Xanthine dehydrogenase/oxidase (Homo sapiens, UniProt P47989). Kind of experiment: xanthine oxidase activity: Xanthine oxidase inhibition was determined using a standard fluorescence-based assay for xanthine oxidase activity (McHale A, Grimes H, Coughlan M P: Int J Biochem. 10:317-9, 1979) with minor variations. […] Experiments on test compounds were performed in triplicate in multi-well plates using 10 concentrations of each compound that ranged over a 3-fold dilution.
Sequence of Xanthine dehydrogenase/oxidase (P47989 whole entry): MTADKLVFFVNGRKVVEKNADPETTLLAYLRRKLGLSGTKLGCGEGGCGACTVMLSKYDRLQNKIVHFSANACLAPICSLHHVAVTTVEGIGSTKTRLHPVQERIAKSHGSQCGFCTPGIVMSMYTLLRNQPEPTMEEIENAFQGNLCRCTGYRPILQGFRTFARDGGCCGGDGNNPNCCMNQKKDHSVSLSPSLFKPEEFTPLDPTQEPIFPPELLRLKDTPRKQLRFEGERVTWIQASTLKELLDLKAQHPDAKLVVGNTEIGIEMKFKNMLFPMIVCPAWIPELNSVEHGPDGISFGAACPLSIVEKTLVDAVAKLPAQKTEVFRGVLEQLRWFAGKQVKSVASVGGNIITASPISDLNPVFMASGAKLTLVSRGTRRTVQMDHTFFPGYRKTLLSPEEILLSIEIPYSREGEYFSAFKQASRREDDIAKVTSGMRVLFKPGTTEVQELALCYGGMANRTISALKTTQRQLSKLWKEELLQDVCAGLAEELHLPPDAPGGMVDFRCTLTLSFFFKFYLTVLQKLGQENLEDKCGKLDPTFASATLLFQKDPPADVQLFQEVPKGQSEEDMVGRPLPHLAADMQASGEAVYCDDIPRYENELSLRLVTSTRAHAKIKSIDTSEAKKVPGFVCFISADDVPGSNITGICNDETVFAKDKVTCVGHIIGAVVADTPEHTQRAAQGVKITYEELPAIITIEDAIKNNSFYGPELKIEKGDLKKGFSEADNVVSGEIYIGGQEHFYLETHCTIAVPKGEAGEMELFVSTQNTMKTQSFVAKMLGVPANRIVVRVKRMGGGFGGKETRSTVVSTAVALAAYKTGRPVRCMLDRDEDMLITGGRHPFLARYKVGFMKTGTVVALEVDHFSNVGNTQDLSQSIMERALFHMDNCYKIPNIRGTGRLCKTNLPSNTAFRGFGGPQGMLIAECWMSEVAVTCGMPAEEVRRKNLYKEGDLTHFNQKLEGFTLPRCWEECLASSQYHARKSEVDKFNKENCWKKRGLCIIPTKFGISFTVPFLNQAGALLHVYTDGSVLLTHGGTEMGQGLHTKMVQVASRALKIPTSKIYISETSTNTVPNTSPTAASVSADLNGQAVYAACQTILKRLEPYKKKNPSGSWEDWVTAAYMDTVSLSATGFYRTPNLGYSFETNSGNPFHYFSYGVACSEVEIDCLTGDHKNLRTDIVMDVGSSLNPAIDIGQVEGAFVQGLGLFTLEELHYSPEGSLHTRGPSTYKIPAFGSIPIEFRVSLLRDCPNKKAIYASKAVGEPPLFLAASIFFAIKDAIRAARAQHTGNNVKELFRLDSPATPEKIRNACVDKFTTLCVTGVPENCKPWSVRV

`O=C(O)CSc1nnc(Br)n1-c1ccc(C2CC2)c2ccccc12` had an IC50 of over 300 µM.
